Data reported in patent US20080085889A1, “Amidomethyl-Substituted 1-(Carboxyalkyl) Cyclopentyl-Carbonylamino-Benzazepine-N-Acetic Acid Compounds, Process and Intermediate Products for Their Preparation and Pharmaceutical Compositions Containing Them” (SOLVAY PHARMACEUTICALS GmbH, priority 2003, published 2008).
pIC50: −log10 of the molar value.

Key:
[1] = target: T1, soluble, human recombinant NEP (Homo sapiens, UniProt P08473); test: In-vitro investigation of the NEP inhibitory action (fluorescence-quenched Big-ET-1 analogue, HPLC); type: biochemical
T1 construct: soluble, human recombinant NEP; purchased Prof; Crine, University of Montreal, Canada
Procedure: 1. In-Vitro Investigation of the NEP Inhibitory Action of the Substances
In this test, the measure of the inhibitory activity of the substances which was determined was their IC50 value. The IC50 value of a test substance having enzyme-inhibitory activity is that concentration of the test substance at which 50% of the enzymatic activity of the NEP is blocked.
70 μl test buffer, 10 μl enzyme working solution and 10 μl test substance solution were mixed in an Eppendorf vessel and preincubated at 37° C. for 15 minutes (=min.). Then 10 μl substrate stock solution was added and the test batch was incubated for 60 minutes at 37° C. The enzymatic reaction was then ended by 5-minutes' heating to 95° C. After centrifugation (Heraeus Biofuge B, 3 min.), the liquid supernatant was investigated by HPLC in accordance with the following specifications.
The substrate was separated from cleavage products by means of reversed-phase HPLC (CC 125/4 Nucleosil 300/5 C18 RP column with CC 8/4 Nucleosil 100/5 C18 precolumn, from Macherey-Nagel, Düren, Germany). For this, 60 μl of the test mixture was injected into the HPLC sample injection point and the column was then eluted at a flow rate of 1 ml/min with the following gradient:
Mobile Phase B: 100% acetonitrile+0.5M H3PO4
All the peptides were detected by absorption at 214 nm and by fluorescence with an excitation wavelength of 328 nm and an emission wavelength of 393 nm.
Upon enzymatic cleavage of the peptide, the fluorophore (=Mca) and the quencher end up in different peptide fragments, which reduces the effectiveness of the quench. […] The increasing fluorescence signal (corresponds to the area, A) of the HPLC peak of the peptide with the non-quenched Mca fluorophore is used for the further calculations. This signal was compared for samples with (=Ainhib) and without (=Acontrol) test substance of Formula I, and the value “% inhibition” was calculated on the basis of the respective peak areas according to the following formula: % inhibition=100*(1−Ainhib/Acontrol)
All the samples were measured in duplicates and average values were calculated therefrom. A standard inhibitor (10 nM thiorphan) and a solvent control (0.1% DMSO) were likewise measured as quality controls on each run. In this test model the test substances of Formula I listed in the following Table 1 had the IC50 values given below: […]

[2] = target: T2, His6-tagged hSEP ectodomain (Homo sapiens, UniProt Q495T6); test: In vitro investigation of the hSEP-inhibitory action (fluorescence-quenched Big-ET-1 analogue, HPLC); type: biochemical
T2 construct: His6-tagged hSEP ectodomain; His6; purchased Innogenetics, Ghent, Belgium
T2 sequence (Q495T6 49-779 limits assumed): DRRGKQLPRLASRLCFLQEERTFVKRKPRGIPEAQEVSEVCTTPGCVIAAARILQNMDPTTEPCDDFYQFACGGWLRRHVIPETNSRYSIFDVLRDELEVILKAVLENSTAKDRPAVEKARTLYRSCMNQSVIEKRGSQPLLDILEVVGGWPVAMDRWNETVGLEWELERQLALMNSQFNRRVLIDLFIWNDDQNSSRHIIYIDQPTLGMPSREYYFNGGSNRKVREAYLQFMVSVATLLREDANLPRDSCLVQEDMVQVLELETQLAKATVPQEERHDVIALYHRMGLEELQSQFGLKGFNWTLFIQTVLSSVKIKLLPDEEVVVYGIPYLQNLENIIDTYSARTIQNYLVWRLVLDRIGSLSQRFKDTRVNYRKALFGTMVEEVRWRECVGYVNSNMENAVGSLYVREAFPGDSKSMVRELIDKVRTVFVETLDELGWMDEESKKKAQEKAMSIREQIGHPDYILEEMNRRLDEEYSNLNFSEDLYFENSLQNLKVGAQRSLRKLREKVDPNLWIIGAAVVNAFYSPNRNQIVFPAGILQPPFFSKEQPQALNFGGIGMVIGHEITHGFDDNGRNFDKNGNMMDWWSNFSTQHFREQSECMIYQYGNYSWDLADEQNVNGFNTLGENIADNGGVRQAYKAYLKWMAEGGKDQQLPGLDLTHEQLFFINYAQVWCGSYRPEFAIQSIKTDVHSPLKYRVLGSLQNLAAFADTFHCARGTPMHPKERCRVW
Procedure: 2. In Vitro Investigation of the hSEP-Inhibitory Action of the Substances
In this test, the measure of the inhibitory activity of the substances which was determined was their IC50 value. The IC50 value of a test substance having enzyme-inhibitory activity is that concentration of the test substance at which 50% of the enzymatic activity of the hSEP is blocked.
The test and the HPLC procedure were carried out analogously to the manner set forth above for determining the in vitro inhibitory action of the test substances on NEP. 10 nM phosphoramidon served as standard inhibitor in the HPLC procedure. In this test model the test substances of Formula I listed in the following Table 2 had the IC50 values given below: […]

[3] = system: maximal SAP response to Big-ET; test: In vivo i.v. potency (ID50) to inhibit maximal SAP response to Big-ET in anesthetized rats; design: species or system Rats (Sprague-Dawley); conditions: Rattus norvegicus, iv, dose at which the pressor effect of Big-ET was suppressed by 50%
Procedure: Rats (Sprague-Dawley, CRLD=Charles River) were anaesthetised with 1 ml/kg Rompun/Ketavet 1:1. A pressure transducer (Statham) was inserted into the carotid artery to measure blood pressure.
For intravenous testing, one jugular vein was cannulated for administering the substance, and the other for administering Big-ET-1. […] Five minutes later, 0.5 nmol/kg Big-ET-1 was infused over a period of one minute. SAP, DAP, and heart rate were measured before administration of the substance, then before administration of Big-ET, and subsequently every five minutes after Big-ET administration over a period of 30 minutes using the pressure transducer in known manner. The maximum Big-ET-induced increase in blood pressure was calculated from the measured values as the difference between the value measured at the moment of maximum development of the Big-ET action (typically after 5 min) and the value measured before Big-ET infusion. The dose at which the pressor effect of Big-ET was suppressed by 50% (ID50) was estimated from the inhibitory effects observed over the range of dosages tested (n>5 rats for each dose).
The intravenous potency of the test compounds of Formula I (given as ID50 values) to inhibit the maximal SAP response to Big ET in anesthetized rats is set forth in the following Table 3b: […]

[4] = system: formation of ET-1 from Big-ET-1; test: In vivo inhibition of the Big-ET-1-induced blood pressure increase in anaesthetised rats, i.v. single dose; design: species or system Rats (Sprague-Dawley); conditions: Rattus norvegicus, iv, 5 min before 0.5 nmol/kg Big-ET-1, negative values indicate inhibition, read-out: % substance-related inhibition of the maximum Big-ET effect on SAP vs. control; for change in vivo at 10 µmol/kg: 10 μmol/kg; for change in vivo at 3 µmol/kg: 3 μmol/kg
Source text: 3. In Vivo Investigation of the Inhibitory Action of the Substances on the Formation of ET-1 from Big-ET-1 in Rats
ET-1 is an endogenous substance with strong vasoconstrictive effect. An increase in the ET-1 level results in an increase in blood pressure. Upon infusion of Big-ET-1, an increase in blood pressure takes place to the extent that ET-1 is produced therefrom by enzyme-catalysed cleavage of Big-ET-1. As a measurement of the enzyme-inhibiting action of the substances, their inhibitory action on the increase in blood pressure induced by infusion of Big-ET-1 was determined.
Rats (Sprague-Dawley, CRLD=Charles River) were anaesthetised with 1 ml/kg Rompun/Ketavet 1:1. A pressure transducer (Statham) was inserted into the carotid artery to measure blood pressure. One jugular vein was cannulated for administering the substance, and the other for administering Big-ET-1. After a 20-minute equilibration phase, the rats were administered the corresponding test substance of Formula I at a dose of as a rule 10 μmol/kg (if not stated otherwise), or a vehicle. Five minutes later, 0.5 nmol/kg Big-ET-1 was infused over a period of one minute. The systolic (SAP=systolic arterial pressure) and the diastolic (DAP=diastolic arterial pressure) blood pressure and the heart rate were each measured before administration of the substance, then immediately before administration of Big-ET and in each case every five minutes over a period of 30 minutes after Big-ET administration using the pressure transducer in known manner. The maximum Big-ET-induced increase in blood pressure and the maximum lowering of heart rate were calculated from the measured values as the difference between the value measured at the moment of maximum development of the Big-ET action (typically after 5 min.) and the value measured before Big-ET infusion. Furthermore, the integral of the blood pressure curve under the influence of Big-ET-1 was determined over 30 minutes (AUC=area under the curve).
The percentage inhibition of the maximum Big-ET-1 effect on the systolic arterial blood pressure (SAP) after i.v. administration of the test substances compared with administration of a vehicle is set forth in the following Table 3a:
Data given in table 3a as negative values indicate an inhibitory effect.

[5] = Plasma protein binding, equilibrium dialysis, rat plasma; type: in vitro ADME; conditions: rat plasma (10% for routine testing), 37° C., pH 7.4, 10% plasma (100% for low binders), read-out: % bound (rat plasma) (converted)
Procedure: (§1) Plasma protein binding of the test substances of Formula I was measured using a validated equilibrium dialysis method. The dialysis cells consisted of two halves separated by a semi-permeable membrane slightly tensioned in between. […] Before being used, the membranes were re-hydrated by soaking in water followed by the dialysis buffer. Plasma (10% for routine testing, and 100% for compounds found to have a low protein binding) was heated to 37° C. and adjusted to pH 7.4 before use. 5 μM test compound solutions (final dimethylsulfoxide concentration 0.5%) were prepared in isotonic phosphate buffer containing rat or human plasma. The plasma-containing solution was on one side of the membrane, and the plasma-free on the other. Incubations were performed overnight (10% plasma assay), or for 2 hours (100% plasma assay) in triplicate. The cells were mounted in a drive unit that rotated the cells and ensured a uniform equilibrium was obtained. The equilibrium was temperature controlled by the drive unit being immersed in a water bath at 37° C. At the end of the equilibration time, the cells were emptied. The solutions for each batch of compounds were combined into two groups (plasma-free and plasma-containing) then cassette analysed by LC-MS/MS using two sets of calibration standards for plasma-free (7 points) and plasma-containing solutions (6 points). The percentage of protein bound compound was calculated as follows: [formula] PC=sample concentration in protein containing side; PF=sample concentration in protein free side;

[6] = Plasma protein binding, equilibrium dialysis, human plasma; type: in vitro ADME; conditions: human plasma (10% for routine testing), 37° C., pH 7.4, 10% plasma (100% for low binders), read-out: % bound (human plasma) (converted)
Procedure: as §1

T1 sequence (P08473 52-750 limits assumed): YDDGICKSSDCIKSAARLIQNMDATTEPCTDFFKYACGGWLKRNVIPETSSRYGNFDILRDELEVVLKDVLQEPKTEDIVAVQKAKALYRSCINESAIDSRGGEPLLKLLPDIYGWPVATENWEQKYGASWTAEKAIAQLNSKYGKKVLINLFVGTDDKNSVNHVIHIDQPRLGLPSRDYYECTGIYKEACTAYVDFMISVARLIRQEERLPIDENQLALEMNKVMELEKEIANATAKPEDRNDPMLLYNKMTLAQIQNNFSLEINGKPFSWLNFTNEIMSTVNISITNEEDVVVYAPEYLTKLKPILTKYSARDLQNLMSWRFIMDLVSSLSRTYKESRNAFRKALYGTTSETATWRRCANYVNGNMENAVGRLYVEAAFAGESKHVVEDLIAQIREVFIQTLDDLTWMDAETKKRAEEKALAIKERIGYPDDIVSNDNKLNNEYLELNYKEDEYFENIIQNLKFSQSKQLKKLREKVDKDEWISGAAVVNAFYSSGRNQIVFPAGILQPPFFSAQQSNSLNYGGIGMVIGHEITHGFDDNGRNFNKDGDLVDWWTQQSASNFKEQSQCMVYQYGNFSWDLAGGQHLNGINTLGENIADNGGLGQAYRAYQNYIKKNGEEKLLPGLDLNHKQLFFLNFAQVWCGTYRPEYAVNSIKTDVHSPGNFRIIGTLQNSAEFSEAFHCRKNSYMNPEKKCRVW

| pIC50 [1] | pIC50 [2] | fraction unbound at 5 μM [5] | fraction unbound at 5 μM [6] | SMILES | ED50 [3] [µmol/kg] | change in vivo at 10 µmol/kg [4] [%] | change in vivo at 3 µmol/kg [4] [%] |
| --- | --- | --- | --- | --- | --- | --- | --- |
| 7.82 | 7.92 |  |  | CCN(CCCN)C(=O)CC(CC1(C(=O)NC2CCc3ccccc3N(CC(=O)O)C2=O)CCCC1)C(=O)O (racemic) [Example 67, 4-[(3-aminopropyl)(ethyl)amino]-2-{[1-({[1-(carboxymethyl)-2-oxo-2,3,4,5-tetrahydro-1H-1-benzazepin-3-yl]amino}carbonyl)cyclopentyl]methyl}-4-oxobutanoic acid] | 0.5 | -109 |  |
|  |  |  |  | CNCCN(C)C(=O)CC(CC1(C(=O)NC2CCc3ccccc3N(CC(=O)O)C2=O)CCCC1)C(=O)O (racemic) [Example 68, 2-{[1-({[1-(carboxymethyl)-2-oxo-2,3,4,5-tetrahydro-1H-1-benzazepin-3-yl]amino}carbonyl)cyclopentyl]methyl}-4-{methyl[2-(methylamino)ethyl]amino}-4-oxobutanoic acid] | 0.7 | -108 |  |
|  |  |  |  | CN(CCCCN)C(=O)CC(CC1(C(=O)NC2CCc3ccccc3N(CC(=O)O)C2=O)CCCC1)C(=O)O (racemic) [Example 75, 4-[(4-aminobutyl)(methyl)amino]-2-{[1-({[1-(carboxymethyl)-2-oxo-2,3,4,5-tetrahydro-1H-1-benzazepin-3-yl]amino}carbonyl)cyclopentyl]methyl}-4-oxobutanoic acid] | 0.1 |  | -52 |
|  |  |  |  | CN(CCCCCN)C(=O)CC(CC1(C(=O)NC2CCc3ccccc3N(CC(=O)O)C2=O)CCCC1)C(=O)O (racemic) [Example 78, 4-[(5-aminopentyl)(methyl)amino]-2-{[1-({[1-(carboxymethyl)-2-oxo-2,3,4,5-tetrahydro-1H-1-benzazepin-3-yl]amino}carbonyl)cyclopentyl]methyl}-4-oxobutanoic acid] | < 1 |  | -82 |
| 8.05 |  | 0.31 | 0.6 | CC(C)N(C)C(=O)CC(CC1(C(=O)N[C@H]2CCc3ccccc3N(CC(=O)O)C2=O)CCCC1)C(=O)O (single isomer, unassigned) [Example 63] | 0.08 |  |  |
|  |  |  |  | CCOC(=O)C(CC(=O)NCCCO)CC1(C(=O)N[C@H]2CCc3ccccc3N(CC(=O)O)C2=O)CCCC1 (stereo in doubt) [Example 8] | 0.2 | -113 |  |
